Measured values published in patent US10385103B2, “Cell-permeable (ICP)-SOCS3 recombinant protein and uses thereof” (CELLIVERY THERAPEUTICS, INC., priority 2014, dated 2019).

Test system: RAW 264.7 cells
Experiment: Quantitative cell-permeability of FITC-labeled aMTD- or rPeptide-fused CRA recombinant proteins (flow cytometry)
Type: cell-based
Conditions: for Relative Ratio to aMTD AVE: cell-permeability of rPeptide-fused CRA recombinant protein relative to average of 240 aMTDs
Outline: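 RAW 264.7 cells were exposed to 10 μM FITC-labeled recombinant proteins, consisting of a non-functional cargo fused to aMTD or rPeptide sequences, for 1 hour at 37° C. Cells were washed three times in cold PBS and treated with 0.25% tripsin/EDTA for 20 minutes at 37° C. to strip surface-bound protein, then uptake was measured by flow cytometry.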

[1] = cell-permeability of aMTD-fused CRA recombinant protein relative to negative control (A: rP38)
[2] = cell-permeability of aMTD-fused CRA recombinant protein relative to reference CPP (B: MTM12)
[3] = cell-permeability of aMTD-fused CRA recombinant protein relative to reference CPP (C: MTD85)
[4] = cell-permeability relative to negative control rP38 (A type), aMTD-fused CRA recombinant protein, 10 μM FITC-labeled, 1 hour, 37° C., RAW 264.7 cells
[5] = cell-permeability relative to reference CPP MTD85 (C type), aMTD-fused CRA recombinant protein, 10 μM FITC-labeled, 1 hour, 37° C., RAW 264.7 cells
[6] = cell-permeability relative to reference CPP MTM12 (B type), aMTD-fused CRA recombinant protein, 10 μM FITC-labeled, 1 hour, 37° C., RAW 264.7 cells
[7] = 10 μM FITC-labeled, 1 hour, 37° C., RAW 264.7 cells

Row | Substance | Relative Ratio (Fold) A [1] [Fold] | Relative Ratio (Fold) B [2] [Fold] | Relative Ratio (Fold) C [3] [Fold] | also measured
1 | 507 (VAIALAPVVVAP; Amino acid Sequence of aMTD907) [compound 507] | 8.1 | 5.4 | 2.8 | 
2 | 521 (LAALIVVPAVAP; Amino acid Sequence of aMTD521) [compound 521] | 9.4 | 6.3 | 3.2 | 
3 | 522 (ALLVIAVPAVAP; Amino acid Sequence of aMTD522) [compound 522] | 22.7 | 15.2 | 7.7 | 
4 | 524 (AVALIVVPALAP; Amino acid Sequence of aMTD524) [compound 524] | 18.3 | 12.2 | 6.2 | 
5 | 525 (ALAIVVAPVAVP; Amino acid Sequence of aMTD525) [compound 525] | 13.8 | 9.2 | 4.7 | 
6 | 541 (LLALIIAPAAAP; Amino acid Sequence of aMTD541) [compound 541] | 14.8 | 9.9 | 5.0 | 
7 | 542 (ALALIIVPAVAP; Amino acid Sequence of aMTD542) [compound 542] | 16.2 | 10.8 | 5.5 | 
8 | 543 (LLAALIAPAALP; Amino acid Sequence of aMTD543) [compound 543] | 11.7 | 7.9 | 4.0 | 
9 | 544 (IVALIVAPAAVP; Amino acid Sequence of aMTD544) [compound 544] | 23.4 | 15.6 | 7.9 | 
10 | 545 (VVLVLAAPAAVP; Amino acid Sequence of aMTD545) [compound 545] | 34.6 | 23.1 | 11.7 | 
11 | 561 (AAVAIVLPAVVP; Amino acid Sequence of aMTD561) [compound 561] |  |  |  | Relative Ratio (Fold) A [4]: 3.9 Fold; Relative Ratio (Fold) C [5]: 1.3 Fold; Relative Ratio (Fold) B [6]: 2.6 Fold
12 | 562 (ALIAAIVPALVP; Amino acid Sequence of aMTD562) [compound 562] | 32.7 | 21.8 | 11.0 | 
13 | 564 (VAIALIVPALAP; Amino acid Sequence of aMTD564) [compound 564] | 43.6 | 29.1 | 14.7 | 
14 | 565 (VAIVLVAPAVAP; Amino acid Sequence of aMTD565) [compound 565] | 7.5 | 5.0 | 2.5 | 
15 | 582 (VAVALIVPALAP; Amino acid Sequence of aMTD582) [compound 582] | 30.6 | 20.4 | 10.3 | 
16 | 583 (AVILALAPIVAP; Amino acid Sequence of aMTD583) [compound 583] |  |  |  | Relative Ratio (Fold) A [4]: 7.3 Fold; Relative Ratio (Fold) C [5]: 2.4 Fold; Relative Ratio (Fold) B [6]: 4.8 Fold
17 | 585 (ALIVAIAPALVP; Amino acid Sequence of aMTD585) [compound 585] |  |  |  | Relative Ratio (Fold) A [4]: 6.6 Fold; Relative Ratio (Fold) C [5]: 2.2 Fold; Relative Ratio (Fold) B [6]: 4.4 Fold
18 | 601 (AAILIAVPIAAP; Amino acid Sequence of aMTD601) [compound 601] | 26.8 | 17.9 | 9.0 | 
19 | 602 (VIVALAAPVLAP; Amino acid Sequence of aMTD602) [compound 602] | 9.9 | 5.8 | 3.4 | 
20 | 603 (VLVALAAPVIAP; Amino acid Sequence of aMTD603) [compound 603] | 54.1 | 36.1 | 18.2 | 
21 | 604 (VALIAVAPAVVP; Amino acid Sequence of aMTD604) [compound 604] |  |  |  | Relative Ratio (Fold) A [4]: 4.3 Fold; Relative Ratio (Fold) C [5]: 1.5 Fold; Relative Ratio (Fold) B [6]: 2.5 Fold
22 | 605 (VIAAVLAPVAVP; Amino acid Sequence of aMTD605) [compound 605] | 11.0 | 7.4 | 3.7 | 

Row | Substance | Relative Ratio (Fold) A [1] [Fold] | Relative Ratio (Fold) B [2] [Fold] | Relative Ratio (Fold) C [3] [Fold] | also measured
23 | 622 (ALIVLAAPVAVP; Amino acid Sequence of aMTD622) [compound 622] | 10.6 | 7.1 | 3.6 | Relative Ratio (Fold) A [4]: 10.6 Fold; Relative Ratio (Fold) C [5]: 3.6 Fold; Relative Ratio (Fold) B [6]: 7.1 Fold
24 | 623 (VAAAIALPAIVP; Amino acid Sequence of aMTD623) [compound 623] |  |  |  | Relative Ratio (Fold) A [4]: 0.8 Fold; Relative Ratio (Fold) C [5]: 0.3 Fold; Relative Ratio (Fold) B [6]: 0.6 Fold
25 | 625 (ILAAAAAPLIVP; Amino acid Sequence of aMTD625) [compound 625] | 20.3 | 13.9 | 7.0 | 
26 | 635 (GSTGGSQQNNQY; Amino acid Sequence of rPeptide ID 635) [compound 635] |  |  |  | Relative Ratio to aMTD AVE [7]: 0.07
27 | 643 (LALVLAAPAIVP; Amino acid Sequence of aMTD643) [compound 643] | 11.8 | 7.9 | 4.0 | 
28 | 645 (ALAVVALPAIVP; Amino acid Sequence of aMTD645) [compound 645] |  |  |  | Relative Ratio (Fold) A [4]: 4.3 Fold; Relative Ratio (Fold) C [5]: 1.5 Fold; Relative Ratio (Fold) B [6]: 2.9 Fold
29 | 661 (AAILAPIVAALP; Amino acid Sequence of aMTD661) [compound 661] | 21.4 | 14.3 | 7.2 | 
30 | 664 (ILIAIAIPAAAP; Amino acid Sequence of aMTD664) [compound 664] |  |  |  | Relative Ratio (Fold) A [4]: 5.7 Fold; Relative Ratio (Fold) C [5]: 1.9 Fold; Relative Ratio (Fold) B [6]: 3.8 Fold
31 | 665 (LAIVLAAPVAVP; Amino acid Sequence of aMTD665) [compound 665] | 14.7 | 9.9 | 5.0 | 
32 | 666 (AAIAIIAPAIVP; Amino acid Sequence of aMTD666) [compound 666] | 14.7 | 9.9 | 5.0 | 
33 | 667 (LAVAIVAPALVP; Amino acid Sequence of aMTD667) [compound 667] |  |  |  | Relative Ratio (Fold) A [4]: 6.9 Fold; Relative Ratio (Fold) C [5]: 2.3 Fold; Relative Ratio (Fold) B [6]: 4.6 Fold
34 | 683 (LAIVLAAPAVLP; Amino acid Sequence of aMTD683) [compound 683] |  |  |  | Relative Ratio (Fold) A [4]: 5.5 Fold; Relative Ratio (Fold) C [5]: 1.9 Fold; Relative Ratio (Fold) B [6]: 3.2 Fold
35 | 684 (AAIVLALPAVLP; Amino acid Sequence of aMTD684) [compound 684] |  |  |  | Relative Ratio (Fold) A [4]: 3.5 Fold; Relative Ratio (Fold) C [5]: 1.2 Fold; Relative Ratio (Fold) B [6]: 2.1 Fold
36 | 685 (ALLVAVLPAALP; Amino acid Sequence of aMTD685) [compound 685] | 10.2 | 5.9 | 3.4 | 
37 | 686 (AALVAVLPVALP; Amino acid Sequence of aMTD686) [compound 686] | 19.5 | 13.1 | 6.6 | 
38 | 687 (AILAVALPLLAP; Amino acid Sequence of aMTD687) [compound 687] | 12.0 | 7.0 | 4.1 | 
39 | 692 (PAPLPPVVILAV; Amino acid Sequence of rPeptide ID 692) [compound 692] |  |  |  | Relative Ratio to aMTD AVE [7]: 0.74
40 | 693 (AAPVLPVAVPIV; Amino acid Sequence of rPeptide ID 693) [compound 693] |  |  |  | Relative Ratio to aMTD AVE [7]: 0.13
41 | 700 (GTSNTCQSNQNS; Amino acid Sequence of rPeptide ID 700) [compound 700] |  |  |  | Relative Ratio to aMTD AVE [7]: 0.05; Relative Ratio (Fold) A (relative cell-permeability of rPeptide vs reference A (not defined)): 1.0 Fold; Relative Ratio (Fold) B (relative cell-permeability of rPeptide vs reference CPP B: MTM12): 0.6 Fold; Relative Ratio (Fold) C (relative cell-permeability of rPeptide vs reference CPP C: MTD85): 0.3 Fold
42 | 703 (IVAVALVPALAP; Amino acid Sequence of aMTD703) [compound 703] | 29.2 | 19.5 | 9.9 | 
43 | 705 (IVAVALLPALAP; Amino acid Sequence of aMTD705) [compound 705] | 29.6 | 19.1 | 9.7 | 
